The values that follow come from US20240316196A1, “METHODS AND COMPOSITIONS FOR DIFFERENTIATION OF PLURIPOTENT STEM CELLS AND DERIVED NATURAL KILLER CELLS” (NUWACELL BIOTECHNOLOGIES CO., LTD., priority 2022, published 2024).

Format in all cases: cell-based
The test system of one series is K562 cells. Put plainly: Cytotoxicity of Stage 3 iNK cells towards K562 cells (CFSE/7AAD assay). To be noted: added to Stage 3 medium (IL-10 20 ng/mL, IL-18 50 ng/mL); 4 hr co-culture, E:T 3:1 (FIG. 13A). As to the method: hiPSCs were prepared as described in CN108373998B. On Day −1, Embryoid body (EB) formation (Stage 1-1) was carried out by placing individualized hiPSCs in E8 medium containing 10 μM Blebbistatin in T25 flasks on a bellydancer and culture overnight. On Day 0, lateral mesoderm differentiation (Stage 1-2) was initiated by changing the medium to a Stage 1-2 differentiation medium comprising IF-4 basal medium and supplemented with BMP4 (25 ng/mL), VEGF (15 ng/mL), bFGF (0.5 ng/mL) and CHIR99021 (4 μM) for 2 days. On Day 2, lateral mesoderm differentiation (Stage 1-3) continued for 1 day in a Stage 1-3 differentiation medium comprising IF-4 basal medium and supplemented with BMP4 (25 ng/mL), VEGF (50 ng/mL) and bFGF (0.5 ng/mL) and CHIR99021 (1 μM). On Day 3, HE specification (Stage 1-4) was initiated by adding a Stage 1-4 differentiation medium comprising IF-4 basal medium and supplemented with VEGF (15 ng/mL), bFGF (5 ng/mL), XAV939 (5 μM) for 1 day. […] On Day 11 of co-culture, iNK cells were collected and stained with CD56-PE antibody (BD, #555516), the percentage of CD56+ cells was analyzed by flow cytometry. The cytotoxicity of Stage 3 iNK cells towards K562 cells was detected by CFSE/7AAD assay after 4 hr co-culture at E:T of 3:1.

A further series relates to K562 tumor cells. Nature of the series: Specific lysis of K562 tumor cells by expanded NK cells (CFSE/7-AAD cytotoxicity assay). To be noted: heparin sodium 0-50 μg/mL in NKSFM; E:T 3:1, 4 hours (FIG. 3C). The procedure: (§1) The effect of heparin sodium concentration in an exemplary NKSFM on NK cell expansion was also evaluated. NKSFM comprised the following components: IMDM (Sigma): DMEM/F12 (Gibco) (50%: 50%); about 20 μM of Ethanolamine, about 1-50 ng/mL of Na Selenite, about 110 μg/mL of Sodium pyruvate, 0.1-20 μg/mL of Insulin, 1-200 μg/mL of Transferrin, about 1%(v/v) of GlutaMAX-1, 0.1-20 mg/mL of Human serum albumin, 1-400 μM of MTG, about 80 μg/mL of Ascorbic acid, about 1-5 mM of NAM, 4%(v/v) of PLT, and indicated concentration of heparin sodium. PBMCs were isolated by density gradient centrifugation using Ficoll-Paque. […] Cells were collect on Day 13 and stained with CD56-PE and CD3-PerCP-Cy5.5 antibodies, the percentage of CD56^+CD3^− NK cells was analyzed by flow cytometry. The specific lysis of K562 tumor cells by NK cells were assessed by CFSE/7-AAD cytotoxicity assay. […] After incubation for 4 hours, cells were stained with 7-AAD (Live/dead staining) and analyzed with flow cytometry.
The effect of PLT percentage (v/v) in an exemplary NKSFM on NK cell expansion was evaluated. […] Cells were collect on Day 14 and stained with CD56-PE and CD3-PerCP-Cy5.5 antibodies, the percentage of CD56^+CD3^− NK cells was analyzed by flow cytometry. The specific lysis of K562 tumor cells by NK cells were assessed by CFSE/7-AAD cytotoxicity assay. […]

A further series deals with PBNK cells. Put plainly: Expansion of PBNK cells from PBMCs (NK cell expansion fold; CD56+CD3− % by flow cytometry). To be noted: heparin sodium 0-50 μg/mL in NKSFM. The procedure: The effect of the concentration of nicotinamide (NAM) in an exemplary basal medium on NK cell expansion was evaluated. The above basal medium comprised the following components: IMDM (Sigma): RPMI1640 (Gibco) (50%: 50%); about 1.3 ng/mL of Cupric sulfate, about 3 μM of Ferric sulfate, about 0.432 μg/mL of Zinc sulfate, about 1-50 ng/mL of Na Selenite, about 110 μg/mL of Sodium pyruvate, 0.1-20 μg/mL of Insulin, 1-200 μg/mL of Transferrin, about 1%(v/v) of GlutaMAX-1, 0.1-20 mg/mL of HSA, 1-400 μM of MTG, about 80 μg/mL of Ascorbic acid and indicated concentration of NAM. Peripheral blood mononuclear cells (PBMCs) were isolated by density gradient centrifugation using Ficoll-Paque. On Day 0, PBMCs were plated at 1×10^6 cells/mL in a 48-well-plate in the basal medium with NAM (either 0, 1, 2, 2.5, 3, 3.5, 4, or 5 mM) and stimulated with the following reagents for 3 days: immobilized CD16 antibody (Biolegend, 302014) (135 ng/cm^2), IL-2 (700 IU/mL), IL-15 (10 ng/mL) and OK432 (0.01 KE/mL). On day 3, cells were re-suspended in the above basal medium supplemented with IL-2 (700 IU/mL) and IL-15 (10 ng/mL). Fresh medium was added every other day to maintain cell density below 2×10^6 cells/mL. Cells were collect on Day 14 and stained with CD56-PE and CD3-PerCP-Cy5.5 antibodies, the percentage of CD56^+CD3^− NK cells was analyzed by flow cytometry.
as §1, with “Ficoll-Paque. On Day 0, PBMCs were plated at 1×10^6 cells/mL in a 48-well-plate in NKSFM with heparin sodium (0, 0.5, 1, 3, 10, 30, or 50 μg/mL) and stimulated with the following reagents for 3 days: immobilized CD16 antibody (Biolegend, 302014) (135 ng/cm^2), OK432 (0.01 KE/mL), NeoIL-2 (50 ng/mL), IL-12 (10 ng/mL), IL-18 (50 ng/mL).” for “Ficoll-Paque.”
The effect of PLT percentage (v/v) in an exemplary NKSFM on NK cell expansion was evaluated. […]

For “IL-10: interleukin added to Stage 3 expansion and maturation medium”, the “cytotoxicity of iNK cells towards K562 cells” value in the series on K562 cells is on record as “significantly improve”.
As to heparin sodium, the “specific lysis of K562 tumor cells, effect of concentration” value in the series with K562 tumor cells is “minimal effect”. Moreover, the “NK cell expansion fold, effect of concentration” value in the series with PBNK cells (Day 13 (FIG. 3A)) was “significantly influences”. For the same substance, in the series with PBNK cells (Day 13 (FIG. 3B)), the “percentage of CD56^+CD3^− NK cells, effect of concentration” value was “minimal effect”.
